28 compounds from patent publication US20120172359A1 (NOVARTIS AG, priority 2010, published 2012) can be followed below.

Where a name gives a salt, the structure may show the parent alone.

Sequence of Human BACE-1 (P56817 46-457 limits assumed): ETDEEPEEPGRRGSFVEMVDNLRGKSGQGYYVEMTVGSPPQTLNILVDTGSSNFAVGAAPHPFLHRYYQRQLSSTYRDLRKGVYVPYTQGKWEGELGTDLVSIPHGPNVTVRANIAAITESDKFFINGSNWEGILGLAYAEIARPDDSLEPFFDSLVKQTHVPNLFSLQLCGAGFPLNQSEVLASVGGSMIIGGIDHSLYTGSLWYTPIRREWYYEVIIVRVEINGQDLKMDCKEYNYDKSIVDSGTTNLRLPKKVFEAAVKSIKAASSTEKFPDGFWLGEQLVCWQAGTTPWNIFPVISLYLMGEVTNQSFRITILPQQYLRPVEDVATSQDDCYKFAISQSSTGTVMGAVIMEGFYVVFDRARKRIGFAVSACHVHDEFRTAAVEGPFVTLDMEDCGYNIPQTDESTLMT

This assay has as its target Human BACE-1 (Homo sapiens, UniProt P56817). In words: Test 1: Inhibition of Human BACE-1. Format: biochemical. The conditions noted are these: Test 1; recombinant BACE-1 (extracellular domain), acetate buffer pH 4.5, 1 hour with test compound at room temperature, fluorescence-quenched peptide substrate; read-out: Bace IC50.
On to `Cc1c(C(=O)Nc2ccc(F)c([C@]3(C(F)F)COCC(N)=N3)c2)oc2ccc(Br)cc12` [Example 114, 5-Bromo-3-methyl-benzofuran-2-carboxylic acid [3-((R)-5-amino-3-difluoromethyl-3,6-dihydro-2H-[1,4]oxazin-3-yl)-4-fluoro-phenyl]-amide hydrochloride], for which the IC50 came out at 6 nM.

Turning to `Cl.[2H]c1nc(C(=O)Nc2ccc(F)c([C@]3(C(F)F)COCC(N)=N3)c2)c(C([2H])([2H])[2H])c([2H])c1Cl` [Example 115, 5-Chloro-4,6-dideutero-3-trideuteromethyl-pyridine-2-carboxylic acid [3-((R)-5-amino-3-difluoromethyl-3,6-dihydro-2H-[1,4]oxazin-3-yl)-4-fluoro-phenyl]-amide hydrochloride], the IC50 is 6 nM.

Turning to `NC1=N[C@@](c2cc(NC(=O)c3ncc(Br)cc3Cl)ccc2F)(C(F)F)COC1` [Example 117, 5-Bromo-3-chloro-pyridine-2-carboxylic acid [3-((R)-5-amino-3-difluoromethyl-3,6-dihydro-2H-[1,4]oxazin-3-yl)-4-fluoro-phenyl]-amide hydrochloride], the IC50 is 18 nM.

`NC1=N[C@@](c2cc(NC(=O)c3ccc(Br)cn3)ccc2F)(C(F)F)COC1` [Example 118, 5-Bromo-pyridine-2-carboxylic acid [3-((R)-5-amino-3-difluoromethyl-3,6-dihydro-2H-[1,4]oxazin-3-yl)-4-fluoro-phenyl]-amide hydrochloride]: the IC50 was 14 nM.

With `NC1=N[C@@](c2cc(NC(=O)c3ncc(Br)cc3O)ccc2F)(C(F)F)COC1` [Example 119, 5-Bromo-3-hydroxy-pyridine-2-carboxylic acid [3-((R)-5-amino-3-difluoromethyl-3,6-dihydro-2H-[1,4]oxazin-3-yl)-4-fluoro-phenyl]-amide hydrochloride], the IC50 worked out at 10 nM.

For `CCOc1ccc(C(=O)Nc2ccc(F)c([C@]3(C(F)F)COCC(N)=N3)c2)nc1` [Example 120, 5-Ethoxy-pyridine-2-carboxylic acid [3-((R)-5-amino-3-difluoromethyl-3,6-dihydro-2H-[1,4]oxazin-3-yl)-4-fluoro-phenyl]-amide], the IC50 came to 180 nM.

Take `NC1=N[C@@](c2cc(NC(=O)c3ncc(Br)cn3)ccc2F)(C(F)F)COC1` [Example 121, 5-Bromo-pyrimidine-2-carboxylic acid [3-((R)-5-amino-3-difluoromethyl-3,6-dihydro-2H-[1,4]oxazin-3-yl)-4-fluoro-phenyl]-amide hydrochloride]: the IC50 is 36 nM.

Turning to `NC1=N[C@@](c2cc(NC(=O)c3cnc(C(F)F)cn3)ccc2F)(C(F)F)COC1` [Example 122, 5-Difluoromethyl-pyrazine-2-carboxylic acid [3-((R)-5-amino-3-difluoromethyl-3,6-dihydro-2H-[1,4]oxazin-3-yl)-4-fluoro-phenyl]-amide hydrochloride], the IC50 was determined as 200 nM.

With `NC1=N[C@@](c2cc(NC(=O)c3cnc(OCC(F)F)cn3)ccc2F)(C(F)F)COC1` [Example 123, 5-(2,2-Difluoro-ethoxy)-pyrazine-2-carboxylic acid [3-((R)-5-amino-3-difluoromethyl-3,6-dihydro-2H-[1,4]oxazin-3-yl)-4-fluoro-phenyl]-amide hydrochloride], the IC50 turned out to be 97 nM.

For the compound `NC1=N[C@@](c2cc(NC(=O)c3cnc(OCC(F)(F)F)cn3)ccc2F)(C(F)F)COC1` [Example 124, 5-(2,2,2-Trifluoro-ethoxy)-pyrazine-2-carboxylic acid [3-((R)-5-amino-3-difluoromethyl-3,6-dihydro-2H-[1,4]oxazin-3-yl)-4-fluoro-phenyl]-amide hydrochloride], the IC50 amounted to 25 nM.

On to `NC1=N[C@@](c2cc(NC(=O)c3cc(Br)co3)ccc2F)(C(F)F)COC1` [Example 125, 4-Bromo-furan-2-carboxylic acid [3-((R)-5-amino-3-difluoromethyl-3,6-dihydro-2H-[1,4]oxazin-3-yl)-4-fluoro-phenyl]-amide hydrochloride], for which the IC50 is 78 nM.

Regarding `NC1=N[C@@](c2cc(NC(=O)c3cc4ccccn4n3)ccc2F)(C(F)F)COC1` [Example 126, Pyrazolo[1,5-a]pyridine-2-carboxylic acid [3-((R)-5-amino-3 difluoromethyl-3,6-dihydro-2H [1,4]oxazin-3-yl)-4-fluoro-phenyl]-amide hydrochloride], the IC50 was found to be 740 nM.

Consider `Cc1nc(C(=O)Nc2ccc(F)c([C@]3(C(F)F)COCC(N)=N3)c2)co1` [Example 127, 2-Methyl-oxazole-4-carboxylic acid [3-((R)-5-amino-3-difluoromethyl-3,6-dihydro-2H-[1,4]oxazin-3-yl)-4-fluoro-phenyl]-amide hydrochloride], for which the IC50 was found to be 98 nM.

On to `Cc1nc(C(=O)Nc2ccc(F)c([C@]3(C(F)F)COCC(N)=N3)c2)c(C)o1` [Example 128, 2,5-Dimethyl-oxazole-4-carboxylic acid [3-((R)-5-amino-3-difluoromethyl-3,6-dihydro-2H-[1,4]oxazin-3-yl)-4-fluoro-phenyl]-amide], for which the IC50 was 170 nM.

On to `COc1cc(Br)cnc1C(=O)Nc1ccc(F)c([C@]2(C(F)F)COCC(N)=N2)c1` [Example 130, 5-Bromo-3-methoxy-pyridine-2-carboxylic acid [3-((R)-5-amino-3-difluoromethyl-3,6-dihydro-2H-[1,4]oxazin-3-yl)-4-fluoro-phenyl]-amide hydrochloride], for which the IC50 is 93 nM.

With `CCc1nc(C(=O)Nc2ccc(F)c([C@]3(C(F)F)COCC(N)=N3)c2)co1` [Example 131, 2-Ethyl-oxazole-4-carboxylic acid [3-((R)-5-amino-3-difluoromethyl-3,6-dihydro-2H-[1,4]oxazin-3-yl)-4-fluoro-phenyl]-amide hydrochloride], the IC50 is 330 nM.

On to `NC1=N[C@@](c2cc(NC(=O)c3ccc(C(F)F)cn3)ccc2F)(C(F)F)COC1` [Example 132, 5-Difluoromethyl-pyridine-2-carboxylic acid [3-((R)-5-amino-3-difluoromethyl-3,6-dihydro-2H-[1,4]oxazin-3-yl)-4-fluoro-phenyl]-amide hydrochloride], for which the 50% inhibitory concentration (IC50) came to 87 nM.

For `Cn1ccnc1C(=O)Nc1ccc(F)c([C@]2(C(F)F)COCC(N)=N2)c1` [Example 133, 1-Methyl-1H-imidazole-2 carboxylic acid [3-((R)-5-amino-3 difluoromethyl-3,6-dihydro-2H [1,4]oxazin-3-yl)-4-fluoro-phenyl]-amide hydrochloride], the IC50 amounted to 1000 nM.

With `NC1=N[C@@](c2cc(NC(=O)c3ccc(O)nn3)ccc2F)(C(F)F)COC1` [Example 134, 6-Hydroxy-pyridazine-3-carboxylic acid [3-((R)-5-amino-3-difluoromethyl-3,6-dihydro-2H-[1,4]oxazin-3-yl)-4-fluoro-phenyl]-amide hydrochloride], the IC50 amounted to 260 nM.

Turning to `COCCOc1cnc(C(=O)Nc2ccc(F)c([C@]3(C(F)F)COCC(N)=N3)c2)cn1` [Example 135, 5-(2-Methoxy-ethoxy)-pyrazine-2-carboxylic acid [3-((R)-5-amino-3-difluoromethyl-3,6-dihydro-2H-[1,4]oxazin-3-yl)-4-fluoro-phenyl]-amide hydrochloride], the IC50 turned out to be 45 nM.

As for `NC1=N[C@@](c2cc(NC(=O)c3cnc(OCCF)cn3)ccc2F)(C(F)F)COC1` [Example 136, 5-(2-Fluoro-ethoxy)-pyrazine-2-carboxylic acid [3-((R)-5-amino-3-difluoromethyl-3,6-dihydro-2H-[1,4]oxazin-3-yl)-4-fluoro-phenyl]-amide hydrochloride], the IC50 amounted to 130 nM.

For the compound `NC1=N[C@@](c2cc(NC(=O)c3ccc(Cl)cn3)ccc2F)(C(F)F)COC1` [Example 137, 5-Chloro-pyridine-2-carboxylic acid [3-((R)-5-amino-3-difluoromethyl-3,6-dihydro-2H-[1,4]oxazin-3-yl)-4-fluoro-phenyl]-amide hydrochloride], the IC50 came to 30 nM.

As for `NC1=N[C@@](c2cc(NC(=O)c3ccc(OC(F)F)cn3)ccc2F)(C(F)F)COC1` [Example 138, 5-Difluoromethoxy-pyridine-2-carboxylic acid [3-((R)-5-amino-3-difluoromethyl-3,6-dihydro-2H-[1,4]oxazin-3-yl)-4-fluoro-phenyl]-amide hydrochloride], the IC50 amounted to 42 nM.

As to `NC1=N[C@@](c2cc(NC(=O)c3ccc(OCF)cn3)ccc2F)(C(F)F)COC1` [Example 139, 5-Fluoromethoxy-pyridine-2-carboxylic acid [3-((R)-5-amino-3-difluoromethyl-3,6-dihydro-2H-[1,4]oxazin-3-yl)-4-fluoro-phenyl]-amide], the IC50 stood at 75 nM.

On to `NC1=N[C@@](c2cc(NC(=O)c3ncc(Cl)cc3F)ccc2F)(C(F)F)COC1` [Example 140, 5-Chloro-3-fluoro-pyridine-2-carboxylic acid [3-((R)-5-amino-3-difluoromethyl-3,6-dihydro-2H-[1,4]oxazin-3-yl)-4-fluoro-phenyl]-amide], for which the half-maximal inhibitory concentration (IC50) turned out to be 43 nM.

Regarding `NC1=N[C@@](c2cc(NC(=O)c3cnc(Cl)cn3)ccc2F)(C(F)F)COC1` [Example 141, 5-Chloro-pyrazine-2-carboxylic acid [3-((R)-5-amino-3-difluoromethyl-3,6-dihydro-2H-[1,4]oxazin-3-yl)-4-fluoro-phenyl]-amide], the IC50 worked out at 33 nM.

As for `Cc1cc(C(=O)Nc2ccc(F)c([C@]3(C(F)F)COCC(N)=N3)c2)n[nH]1` [Example 142, 5-Methyl-1H-pyrazole-3-carboxylic acid [3-((R)-5-amino-3-difluoromethyl-3,6-dihydro-2H-[1,4]oxazin-3-yl)-4-fluoro-phenyl]-amide hydrochloride], the IC50 was determined as 820 nM.

For the compound `Cc1ccc(C(=O)Nc2ccc(F)c([C@]3(C(F)F)COCC(N)=N3)c2)nc1` [Example 143, 5-Methyl-pyridine-2-carboxylic acid [3-((R)-5-amino-3-difluoromethyl-3,6-dihydro-2H-[1,4]oxazin-3-yl)-4-fluoro-phenyl]-amide hydrochloride], the IC50 was determined as 110 nM.

A word on the IC50: it is the point on the concentration scale where inhibition reaches its midpoint.
